Where two headings read alike, the source gives them in different places.
Experiments:
SARS-CoV-2 [1] = details: read-out: SARS-CoV-2 EC50, cited from earlier work
in vitro [2] = details: African green monkey, Selectivity Index (Vero cells)
[3] = Population PK model from satellite PK studies in hamster
[4] = Binding to antiviral assay medium by Rapid Equilibrium Dialysis; details: bovine
SARS-CoV-2 in Vero cells [5] = tested on: SARS-CoV-2 in Vero cells
SARS-CoV-2 in Vero cells [6] = assay: microbe, parasite or virus in culture; details: Severe acute respiratory syndrome coronavirus 2, Vero
[7] = Plasma protein binding, hamster; details: hamster, plasma
[8] = tested on: SARS-CoV-2 in Calu-3 cells
[9] = cited from earlier work
SARS-CoV-2 [10] = type: in vivo, Syrian hamster; details: for Activity in SARS-CoV-2 Hamster Model: doses, frequency, duration as in Table 1
[11] = tested on: SARS-CoV-2 in Calu-3 cells; assay: microbe, parasite or virus in culture; details: Severe acute respiratory syndrome coronavirus 2, Calu-3, read-out: Calu-3 cells Average IC50
[12] = female, LGV Golden Syrian, hamster, in vivo
in vitro [13] = details: hamster, plasma
in vitro [14] = details: bovine
in vitro [15] = details: human, plasma
[16] = Population PK model in human (digitized literature data); details: modelled from digitized data
[17] = tested on: SARS-CoV-2 in A549-Dual hACE2-TMPRSS2 cells; set-up: method as in Abdelnabi et al., 2022 [60]; details: ref Abdelnabi et al., 2022 [60]; cited from earlier work
[18] = hamster of the study's median weight (80-131 g)
[19] = read-out: VERO cells Average IC50, With Pgp pump inhibitor, 2 μM CP-100356, * one replicate only
[20] = read-out: VERO cells Average IC50, Without Pgp pump inhibitor, * one replicate only
[21] = human, ref 68 (ambroxol), 71-73 (cepharanthine)
[22] = human, ref 68 (ambroxol), 71-73 (cepharanthine), 78 (fluvoxamine), 80 (molnupiravir)

Compound | KA, absorption rate constant, population estimate (%RSE) [3, 18] | Q/F (Q1/F), inter-compartment clearance, population estimate (%RSE) [3, 18] | VP/F, peripheral volume of distribution, population estimate (%RSE) [3, 18] | fraction unbound [4] | IC50 (SARS-CoV-2 in Vero cells [6]; [19]) [µM] | IC50 (SARS-CoV-2 in Vero cells [6]; [20]) [µM] | fraction unbound [7] | Activity In Vitro; Potency EC50 or IC50 < 10 µM; Calu-3 Cells [8] | Activity in SARS-CoV-2 Hamster Model (SARS-CoV-2 [10]) | IC50 [11] [µM] | EC50 (SARS-CoV-2 [1]; host cell VeroE6/TMPRSS2) [µM] | Activity In Vitro; Potency EC50 or IC50 < 10 µM; Vero Cells (SARS-CoV-2 in Vero cells [5]) | CL/F, elimination clearance, population estimate (%RSE) [12] | KA, absorption rate constant, population estimate (%RSE) [12] | VC/F, central volume of distribution, population estimate (%RSE) [12] | fraction unbound (in vitro [13]) | selectivity ratio (in vitro [2]; With Pgp pump inhibitor) | selectivity ratio (in vitro [2]; Without Pgp pump inhibitor) | fraction unbound (in vitro [14]) | Toxicity observed (^T), Vero Cells (SARS-CoV-2 in Vero cells [5]) | other results
COC(=O)N[C@H](C(=O)N1CCC[C@H]1c1nc(-c2ccc(-c3ccc(-c4c[nH]c([C@@H]5CCCN5C(=O)[C@@H](NC(=O)OC)C(C)C)n4)cc3)cc2)c[nH]1)C(C)C [Daclatasvir, daclatasvir] | 0.415 (5.84) h-1 | 33.4 (25.5) mL/h | 438 (25.6) mL | 0.209 | 7.6 | 19.8 | 0.055 | No (Potency EC50 or IC50 < 10 µM) | No | 24.4 |  |  |  |  |  |  |  |  |  |  | EC50 (SARS-CoV-2 [1]; host cell Calu-3): 1.1 µM; EC50 (SARS-CoV-2 [1]; host cell HuH-7): 0.6 µM; EC50 (SARS-CoV-2 [1]; host cell Vero, ref 26): 0.8 µM; selectivity ratio (in vitro [2]; With Pgp pump inhibitor, T: toxicity observed): > 6.6; selectivity ratio (in vitro [2]; Without Pgp pump inhibitor, T: toxicity observed): > 2.5; CL/F, elimination clearance, population estimate (%RSE) [3, 18]: 239 (19.6) mL/h; VC/F, central volume of distribution, population estimate (%RSE) [3, 18]: 86.3 (27.0) mL; Activity In Vitro; Potency EC50 or IC50 < 10 µM; Vero Cells (SARS-CoV-2 in Vero cells [5]; in the presence of a P-glycoprotein inhibitor (^Pgp)): Yes (Potency EC50 or IC50 < 10 µM); Fraction unbound in plasma, human ([9]; literature, ref 61 (N-desethylamodiaquine), 62 (atazanavir), 63 (daclatasvir), 64 (favipiravir), 65 (ivermectin), 66 (tizoxanide), 67 (sofosbuvir)): 1%; Activity in SARS-CoV-2 Hamster Model (SARS-CoV-2 [10]; listed as daclatasvir): no activity
NC(=O)c1nc(F)c[nH]c1=O [Favipiravir, favipiravir] |  |  |  | 0.993 | > 50 | > 50 |  | No (Potency EC50 or IC50 < 10 µM) | Yes | > 50 | > 64 | No (Potency EC50 or IC50 < 10 µM) | 58.2 (6.06) mL/h | 0.774 (7.71) h-1 | 11.7 (14.7) mL | 0.821 |  |  |  |  | EC50 (SARS-CoV-2 [1]; host cell Vero E6, ref 17): 446 µM; EC50 (SARS-CoV-2 [1]; host cell Vero E6, ref 31): > 100 µM; EC50 (SARS-CoV-2 [1]; host cell Vero E6, ref 32): > 50 µM; EC50 (SARS-CoV-2 [1]; host cell Vero E6, ref 34): 117 µM; EC50 (SARS-CoV-2 [1]; host cell Vero E6, ref 35): 62 µM; EC50 (SARS-CoV-2 [1]; host cell Vero, ref 25): > 500 µM; EC50 (SARS-CoV-2 [1]; host cell Vero, ref 36): > 20 µM; Q/F (Q1/F), inter-compartment clearance, population estimate (%RSE) [12]: 1.80 (12.7) mL/h; VP/F, peripheral volume of distribution, population estimate (%RSE) [12]: 11.6 (8.7) mL; Fraction unbound in plasma, human ([9]; human, plasma): 46%; Activity in SARS-CoV-2 Hamster Model (SARS-CoV-2 [10]; listed as favipiravir): demonstrated in vivo efficacy
COc1ccc2cc1Oc1ccc(cc1)C[C@H]1c3c(cc4c(c3Oc3cc5c(cc3OC)CCN(C)[C@@H]5C2)OCO4)CCN1C [Cepharanthine, cepharanthine] |  |  |  |  | 1.9 | 4.5 |  | No (Potency EC50 or IC50 < 10 µM) | No | > 50 | 0.35 | Yes (Potency EC50 or IC50 < 10 µM) | 804 (25.0) mL/h | 1.52 (27.0) h-1 | 66400 (12.5) mL | 0.018 | 17.2 | 9.7 | 0.643 | Yes ^T | fraction unbound (in vitro [15]): 0.02; F, population estimate (%RSE) ([16]; adult 70 kg): 0.116 (7.3%); KA, population estimate (%RSE) ([16]; adult 70 kg): 0.187 (11.0%) h-1; Q2/F, population estimate (%RSE) ([16]; adult 70 kg): 131 (14.2%) L/h; VP2/F, population estimate (%RSE) ([16]; adult 70 kg): 438 (26.5%) L; Q/F (Q1/F), population estimate (%RSE) [16, 21]: 258 (7.6%) L/h; VP/F (VP1/F), population estimate (%RSE) [16, 21]: 9190 (7.3%) L; CL/F, population estimate (%RSE) [16, 22]: 74.4 (5.5%) L/h; VC/F, population estimate (%RSE) [16, 22]: 110 (10.8%) L
CC(C)(C)[C@H](NC(=O)C(F)(F)F)C(=O)N1C[C@H]2[C@@H]([C@H]1C(=O)N[C@H](C#N)C[C@@H]1CCNC1=O)C2(C)C [Nirmatrelvir, nirmatrelvir] |  |  |  | 0.898 | < 0.05 | 3.4 | 0.621 | Yes (Potency EC50 or IC50 < 10 µM) | Yes | 0.3 |  | Yes (Potency EC50 or IC50 < 10 µM) |  |  |  |  |  |  |  |  | EC50 [17]: 0.11 µM; Activity in SARS-CoV-2 Hamster Model (SARS-CoV-2 [10]; listed as nirmatrelvir): demonstrated in vivo efficacy; Lung TCID50 of SARS-CoV-2 in the hamster model (SARS-CoV-2 [10]; hamster, in vivo): significant reduction
CC(C)/N=c1\cc2n(-c3ccc(Cl)cc3)c3ccccc3nc-2cc1Nc1ccc(Cl)cc1 [Clofazimine, clofazimine] | 0.38 (11.0) h-1 | 235 (10.4) mL/h | 2250 (28.0) mL |  |  |  |  | Yes (Potency EC50 or IC50 < 10 µM) | No | 8.4 |  | Yes (Potency EC50 or IC50 < 10 µM) | 49.4 (7.2) mL/h |  | 356 (11.9) mL | < 0.001 | 208 | 8.4 | 0.003 | Yes ^T | EC50 (SARS-CoV-2 [1]; host cell Vero E6, ref 39): 0.31 µM; Dose effect on F (power) ([3]; covariate, hamster model): -0.109 (16.2); Dose effect on KA (exp) ([3]; covariate, hamster model): -0.0094 (20.4); Q2/F, population estimate (%RSE) ([3]; hamster 120 g): 90.5 (20.6) mL/h; VP2/F, population estimate (%RSE) ([3]; hamster 120 g): 7390 (14.9) mL; IC50 (SARS-CoV-2 in Vero cells [6]; read-out: VERO cells Average IC50, With Pgp pump inhibitor): 0.2 µM; IC50 (SARS-CoV-2 in Vero cells [6]; read-out: VERO cells Average IC50, Without Pgp pump inhibitor): 5.9 µM; fraction unbound (in vitro [15]): < 0.001
